Target: human recombinant GPR65 (Homo sapiens, UniProt Q8IYL9)
Experiment: Human GPR65 cAMP HTRF antagonist assay
Assay type: cell-based
Settings: not given
In short: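 Antagonism measured as suppression of the cAMP rise when pH is dropped to 7.2 (control wells pH 7.9) in 1321N1 cells stably carrying human GPR65. Cells in KRH with 1 mM IBMX and 200 μM EDTA saw compound 30 min, then acid stimulation 30 min; HTRF cAMP detection, normalised, 4-parameter logistic IC50.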

human recombinant GPR65, sequence (Q8IYL9 whole entry): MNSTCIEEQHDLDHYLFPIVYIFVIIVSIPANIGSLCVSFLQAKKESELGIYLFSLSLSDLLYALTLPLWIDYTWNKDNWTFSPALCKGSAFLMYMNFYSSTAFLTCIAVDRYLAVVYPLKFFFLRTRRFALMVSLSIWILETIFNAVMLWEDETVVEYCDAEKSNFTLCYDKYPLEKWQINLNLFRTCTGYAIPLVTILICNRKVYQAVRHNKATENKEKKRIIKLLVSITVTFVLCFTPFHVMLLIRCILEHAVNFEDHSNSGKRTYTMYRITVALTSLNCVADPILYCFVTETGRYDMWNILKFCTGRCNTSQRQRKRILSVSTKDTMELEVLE

Structure (SMILES)	IC50
O=C(Nc1cc(Cl)c(-c2ccnc(F)c2)cc1F)N1[C@H]2CC[C@@H]1c1ccnc(F)c1C2 [Compound 268, (5R,8S)-N-(5-Chloro-2-fluoro-4-(2-fluoropyridin-4-yl)phenyl)-1-fluoro-6,7,8,9-tetrahydro-5H-5,8-epiminocyclohepta[c]pyridine-10-carboxamide]	< 500 nM
O=C(Nc1cc(Cl)c(-c2cnc3nsnc3c2)cc1F)N1[C@H]2CC[C@@H]1c1n[nH]c(=O)cc1C2 [Compound 277, (6S,9R)-N-(4-([1,2,5]Thiadiazolo[3,4-b]pyridin-6-yl)-5-chloro-2-fluorophenyl)-3-oxo-3,5,6,7,8,9-hexahydro-2H-6,9-epiminocyclohepta[c]pyridazine-10-carboxamide]	< 500 nM
O=C(Nc1cc(Cl)c(-c2cccnc2F)cc1F)N1[C@H]2CC[C@@H]1c1n[nH]c(=O)cc1C2 [Compound 115, (6S,9R)—N-(5-Chloro-2-fluoro-4-(2-fluoropyridin-3-yl)phenyl)-3-oxo-3,5,6,7,8,9-hexahydro-2H-6,9-epiminocyclohepta[c]pyridazine-10-carboxamide]	< 500 nM
CO[C@H]1C[C@H](Oc2ccc(NC(=O)N3[C@H]4CC[C@@H]3c3ccnc(F)c3C4)cc2Cl)C1 [Compound 73, (5R,8S)-N-(3-Chloro-4-((1r,3R)-3-methoxycyclobutoxy)phenyl)-1-fluoro-6,7,8,9-tetrahydro-5H-5,8-epiminocyclohepta[c]pyridine-10-carboxamide]	500 to 5000 nM
Cc1nc2ccc(-c3cc(F)c(NC(=O)N4[C@H]5CC[C@@H]4c4ccnc(F)c4C5)cc3Cl)cc2o1 [Compound 205, (5R,8S)-N-(5-Chloro-2-fluoro-4-(2-methylbenzo[d]oxazol-6-yl)phenyl)-1-fluoro-6,7,8,9-tetrahydro-5H-5,8-epiminocyclohepta[c]pyridine-10-carboxamide]	< 500 nM
CN1CCc2cc(-c3cc(F)c(NC(=O)N4[C@H]5CC[C@@H]4c4n[nH]c(=O)cc4C5)cc3Cl)ccc2C1=O [Compound 175, (6S,9R)-N-(5-Chloro-2-fluoro-4-(2-methyl-1-oxo-1,2,3,4-tetrahydroisoquinolin-6-yl)phenyl)-3-oxo-3,5,6,7,8,9-hexahydro-2H-6,9-epiminocyclohepta[c]pyridazine-10-carboxamide]	< 500 nM
O=C(Nc1cc(Cl)c(-c2ccc(OC3CCC3)nc2)cc1F)N1[C@H]2CC[C@@H]1c1n[nH]c(=O)cc1C2 [Compound 216, (6S,9R)-N-(5-Chloro-4-(6-cyclobutoxypyridin-3-yl)-2-fluorophenyl)-3-oxo-3,5,6,7,8,9-hexahydro-2H-6,9-epiminocyclohepta[c]pyridazine-10-carboxamide]	< 500 nM
O=C(Nc1ccc(C2COC2)cc1)N1[C@H]2CC[C@@H]1c1ccnc(F)c1C2 [Compound 58, (5R,8S)-1-Fluoro-N-(4-(oxetan-3-yl)phenyl)-6,7,8,9-tetrahydro-5H-5,8-epiminocyclohepta[c]pyridine-10-carboxamide]	500 to 5000 nM

Same assay, conditions: 1321N1-hrGPR65 cells, cAMP HTRF, assay pH 7.2; read-out: hGPR65 IC50 (Activity of selected compounds according to the invention)

Structure (SMILES)	IC50
CC(C)Oc1ccc(NC(=O)N2C3CCC2c2n[nH]c(=O)cc2C3)cc1Cl (racemic) [Compound 13, (±)-N-(3-Chloro-4-isopropoxyphenyl)-3-oxo-3,5,6,7,8,9-hexahydro-2H-6,9-epiminocyclohepta[c]pyridazine-10-carboxamide]	500 to 5000 nM

From patent US20240368173A1, “TRICYCLIC GPR65 MODULATORS” (PATHIOS THERAPEUTICS LIMITED, priority 2021, published 2024)
